Reference: patent publication US9464064B2, “HCV helicase inhibitors and methods of use thereof” (University of Kansas, priority 2011, dated 2016)
Like-named read-outs stand apart in the source and are kept apart here.

Columns and labels:
[1] = Aqueous solubility (direct UV kinetic); assay type: physicochemical; settings: kinetic from dmso stock
Method: Solubility analysis was performed using a direct UV kinetic solubility method in a 96-well format. All liquid dispense and transfer steps were performed with the FREEDOM EVO automated liquid handler (Tecan, US). Solubility measurements were performed in an aqueous buffer solution (PRISMA HT, pION Inc.) at pH 5.0, 6.2 and 7.4, in duplicate. Solubility measurements were also performed in 1×PBS pH 7.4, and in MOPS buffer pH 6.5. Samples were incubated at room temperature for a minimum of […] to achieve equilibrium, then filtered to remove any precipitate formed. The concentration of the compounds was measured by UV absorbance (250-498 nm) using the […] M200 (Tecan, US) and compared to the spectra of the precipitation-free reference solutions. Spectroscopically pure 1-Propanol (Sigma) was used as a cosolvent to suppress precipitation in the reference solutions. The solubility of each compound was determined using pSOL Evolution Plus software v3.2 (pION Inc) and was expressed as the concentration (μg/mL) of a solute in a saturated solution. Diclofenac Na (highly soluble) and Dipyridamole (poorly to moderately soluble) were used as standards. Standards and test compound stocks were made in 100% DMSO. […]

[2] = Absorbance and fluorescence properties; assay type: physicochemical; settings: for Absorbance ∈: extinction coefficient
Description: Most of the compounds isolated from the two yellow dyes were fluorescent, absorbing light around 340 nm, and emitting near 420 nm. Their extinction coefficient and peak absorption wavelengths increased as the length of the benzothiazole oligomer increased. Their relative fluorescence decreased with the length of the benzothiazole chain. None of the compounds absorbed light near either the absorption or emission wavelengths of the Cy5-labeled MBHA substrate, or the wavelengths where the fluorescence of ethidium bromide stained DNA, SYBER green I-stained DNA, NS3-catalyzed peptide cleavage, or ATP hydrolysis were measured.
When directly compared with P4, the semi-synthetic primuline derivatives have a sharper absorbance peak centered near 360 nm, and they emit 3-15 times more light when excited at their absorbance maximum. […] Some compounds, like 12, stained both the cytoplasm and nucleus, but they also stained glass coverslips.

NS3h_2a(JFH1) = biological target: T1, NS3h_2a(JFH1) (Hepatitis C virus genotype 2a, UniProt Q99IB8); assay: NS3 intrinsic protein fluorescence titration; assay type: binding, hepatitis C virus genotype 2a(JFH1); settings: corrected for inner filter effects
T1 construct: truncated C-terminally His-tagged NS3 proteins lacking the N-terminal protease, called NS3h; His-tag (C); made in house
T1 sequence (Q99IB8 1196-1661): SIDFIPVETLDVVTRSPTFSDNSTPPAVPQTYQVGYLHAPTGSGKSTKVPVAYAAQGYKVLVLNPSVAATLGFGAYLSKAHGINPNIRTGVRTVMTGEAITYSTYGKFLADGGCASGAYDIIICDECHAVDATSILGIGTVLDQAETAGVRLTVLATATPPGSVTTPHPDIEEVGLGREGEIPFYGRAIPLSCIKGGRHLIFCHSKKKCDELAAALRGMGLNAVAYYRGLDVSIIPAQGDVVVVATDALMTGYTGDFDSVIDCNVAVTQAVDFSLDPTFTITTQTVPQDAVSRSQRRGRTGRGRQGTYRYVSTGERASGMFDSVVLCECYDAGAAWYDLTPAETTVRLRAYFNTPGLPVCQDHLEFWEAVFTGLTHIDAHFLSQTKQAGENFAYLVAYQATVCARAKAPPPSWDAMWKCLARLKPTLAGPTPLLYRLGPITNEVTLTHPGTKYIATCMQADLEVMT
Method: Compound effects on NS3 intrinsic protein fluorescence were determined by adding aliquots of each compound (1 μl of a 1 mM solution in DMSO) sequentially to 50, 100, or 200 nM of NS3h_2a(JFH1), or 100 nM scNS4A-NS3 dissolved in 2 ml of 25 mM MOPS pH 7, 1.25 mM MgCl2, 0.01% (v/v) TWEEN 20 and 0.3 mM DTT. The titrations were performed in a stirred, temperature-controlled 1 cm cuvette at 23° C. in a Cary Eclipse Fluorescence Spectrophotometer (Agilent Technologies). Intrinsic protein fluorescence was recorded by exciting the sample at 280 nm and reading emission at 340 nm. Excitation and emission slit widths were set to 5 and 10 nm, respectively. All raw fluorescence data were corrected for sample dilution and inner filter effects using Equation 5: Fc=Fobs(V0+Vi)/V0*10^(Aex+Aem/2) (Equation 5) where Fc is corrected fluorescence, Fobs is observed fluorescence, V0 is initial sample volume, Vi is total volume of titrant added, Aex is the absorbance of the solution at the excitation wavelength (280 nm), and Aem is the absorbance of the solution at the emission wavelength (340 nm). Absorbance was calculated at each point in the titrations from extinction coefficients for each compound in titration buffer, which were calculated at 280 nm and 340 nm using four different compound concentrations. […] Fc=F0−(ΔFmax*[…]/(Kd^n+(C)^n)) (Equation 6) In equation 6, […], F0 is fluorescence in the absence of compound, ΔFmax is the maximum change in fluorescence, n is the Hill coefficient, and C is compound concentration.
To examine the direct interaction of the compounds with NS3, the effect of a select few compound on NS3 intrinsic protein fluorescence was analyzed. This technique has been widely used to monitor the interaction of NS3 with its nucleic acid ligands (Lam, et al. (2004) Nucleic Acids Res. 32:4060-4070; Levin & Patel (2002) J. Biol. Chem. 277:29377-29385; Preugschat, et al. (1996) J. Biol. Chem. 271:24449-24457) and other small molecules (Belon, et al. (2010) supra). […] Of note is the fact that, unlike compounds that simply compete for the nucleic acid binding site (e.g., (BIP)2B; Belon, et al. (2010) supra), the primuline derivatives bound NS3h cooperatively as evident from their sigmoid binding isotherms and Hill coefficients greater than one (Equation 6). When compounds were tested against scNS4A-NS3, binding again was detected and apparent affinity for the full-length complex was about 5 times higher than it was for NS3h.

[3] = aqueous with cosolvent or surfactant or cyclodextrin, mock assay matrix (MOPS, TWEEN 20, 5% DMSO) at pH 6.5, read-out: solubility

Row | Structure (SMILES) | solubility ([1]; 1×PBS, pH 7.4, aqueous buffer, read-out: Aqueous Solubility, PBS) | solubility ([1]; PRISMA HT aqueous buffer, aqueous buffer, pH 5.0, read-out: Aqueous Solubility, Prisma HT buffer) | solubility ([1]; PRISMA HT aqueous buffer, pH 6.2, aqueous buffer, read-out: Aqueous Solubility, Prisma HT buffer) | solubility ([1]; PRISMA HT aqueous buffer, pH 7.4, aqueous buffer, read-out: Aqueous Solubility, Prisma HT buffer) | solubility [1, 3] | solubility ([1]; mock assay matrix with TWEEN 20, 5% DMSO, pH 6.5, aqueous with cosolvent or surfactant or cyclodextrin, read-out: Aqueous Solubility, Assay Matrix) | Absorbance λmax [2] | Fluorescence Emmax [2] | Fluorescence RFU@ 10 μM [2] | Absorbance ∈ [2] | interaction with NS3 (intrinsic protein fluorescence) (NS3h_2a(JFH1))
1 | Cc1ccc2nc(-c3ccc4nc(-c5ccc(NC(=O)c6cccc(Cl)c6)cc5)sc4c3)sc2c1S(=O)(=O)O [Compound 17, 2′-(4-(3-chlorobenzamido)phenyl)-6-methyl-[2,6′-bibenzo[d]thiazole]-7-sulfonic acid] | 0.12 µg/mL | 36.7 µg/mL | > 60 µg/mL | > 60 µg/mL | 29.2 µM | 17.8 µg/mL | 356 nm | 502 nm | 215 RFU | 59,500 M^−1cm^−1 | clear interaction
2 | Cc1ccc2nc(-c3ccc4nc(-c5ccc(NC(=O)c6ccc7ccccc7c6)cc5)sc4c3)sc2c1S(=O)(=O)O [Compound 33, 2′-(4-(2-naphthamido)phenyl)-6-methyl-[2,6′-bibenzo[d]thiazole]-7-sulfonic acid] | – | – | – | – | 3.7 µM | – | 359 nm | 496 nm | 236 RFU | 63,450 M^−1cm^−1 | clear interaction
